Target: DNA gyrase (374 kDa Gyr A2B2 subunit from Staphylococcus aureus) (Staphylococcus aureus, UniProt P0A0K8)
Assay: Gyrase ATPase Assay
Type: biochemical
Conditions: 10 μM concentration; ATPase assay at 30° C., 0.9 mM ATP; average of duplicate values; read-out: Gyrase Inhibitory Activity (percent inhibition)
Method: The ATP hydrolysis activity of DNA gyrase was measure by coupling the production of ADP through pyruvate kinase/lactate dehydrogenase to the oxidation of NADH. This method has been described previously (Tamura and Gellert, 1990, J. Biol. Chem., 265, 21342).
ATPase assays are carried out at 30° C. in buffered solutions containing 100 mM TRIS pH 7.6, 1.5 mM MgCl2, 50 mM KCl. The coupling system contains (final concentrations) 2.5 mM phosphoenol pyruvate, 200 μM nicotinamide adenine dinucleotide (NADH), 1 mM DTT, […], and 10 ug/ml lactate dehydrogenase. 40 nanomolar enzyme (374 kDa Gyr A2B2 subunit from Staphylococcus aureus) and a DMSO solution of the inhibitor to a final concentration of 4% are added and the reaction mixture is allowed to incubate for 10 minutes at 30° C. The reaction is then started by the addition of ATP to a final concentration of 0.9 mM and the rate of NADH disappearance at 340 nanometers is measured over the course of 10 minutes. The percent inhibition values are determined from rate versus concentration profiles and are reported as the average of duplicate values.
The compound numbers correspond to the compound numbers in Table 1. Compounds having an activity designated as “A” provided a percent inhibition value below 50 percent; compounds having an activity designated as “B” provided a percent inhibition value between 50 and 75 percent; and compounds having an activity designated as “C” provided a percent inhibition value greater than 75 percent.

Chain of DNA gyrase (374 kDa Gyr A2B2 subunit from Staphylococcus aureus) (P0A0K8 whole entry): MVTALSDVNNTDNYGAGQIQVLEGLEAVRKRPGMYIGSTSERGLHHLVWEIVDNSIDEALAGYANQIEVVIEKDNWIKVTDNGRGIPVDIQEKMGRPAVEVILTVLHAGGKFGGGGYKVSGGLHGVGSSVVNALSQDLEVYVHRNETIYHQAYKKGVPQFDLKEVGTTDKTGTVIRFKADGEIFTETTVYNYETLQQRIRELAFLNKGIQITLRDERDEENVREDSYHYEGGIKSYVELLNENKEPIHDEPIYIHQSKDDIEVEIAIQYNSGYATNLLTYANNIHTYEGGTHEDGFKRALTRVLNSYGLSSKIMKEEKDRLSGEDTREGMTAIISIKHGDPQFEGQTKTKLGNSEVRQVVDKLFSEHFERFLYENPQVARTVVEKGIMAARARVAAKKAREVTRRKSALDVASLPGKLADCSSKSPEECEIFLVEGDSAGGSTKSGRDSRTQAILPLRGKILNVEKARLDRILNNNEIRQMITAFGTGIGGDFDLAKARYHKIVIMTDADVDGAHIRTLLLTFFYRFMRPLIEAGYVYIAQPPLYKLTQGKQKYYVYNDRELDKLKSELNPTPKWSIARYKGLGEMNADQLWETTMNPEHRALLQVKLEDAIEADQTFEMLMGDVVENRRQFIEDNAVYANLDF
Chain of DNA gyrase (374 kDa Gyr A2B2 subunit from Staphylococcus aureus) (P20831 whole entry, further chain): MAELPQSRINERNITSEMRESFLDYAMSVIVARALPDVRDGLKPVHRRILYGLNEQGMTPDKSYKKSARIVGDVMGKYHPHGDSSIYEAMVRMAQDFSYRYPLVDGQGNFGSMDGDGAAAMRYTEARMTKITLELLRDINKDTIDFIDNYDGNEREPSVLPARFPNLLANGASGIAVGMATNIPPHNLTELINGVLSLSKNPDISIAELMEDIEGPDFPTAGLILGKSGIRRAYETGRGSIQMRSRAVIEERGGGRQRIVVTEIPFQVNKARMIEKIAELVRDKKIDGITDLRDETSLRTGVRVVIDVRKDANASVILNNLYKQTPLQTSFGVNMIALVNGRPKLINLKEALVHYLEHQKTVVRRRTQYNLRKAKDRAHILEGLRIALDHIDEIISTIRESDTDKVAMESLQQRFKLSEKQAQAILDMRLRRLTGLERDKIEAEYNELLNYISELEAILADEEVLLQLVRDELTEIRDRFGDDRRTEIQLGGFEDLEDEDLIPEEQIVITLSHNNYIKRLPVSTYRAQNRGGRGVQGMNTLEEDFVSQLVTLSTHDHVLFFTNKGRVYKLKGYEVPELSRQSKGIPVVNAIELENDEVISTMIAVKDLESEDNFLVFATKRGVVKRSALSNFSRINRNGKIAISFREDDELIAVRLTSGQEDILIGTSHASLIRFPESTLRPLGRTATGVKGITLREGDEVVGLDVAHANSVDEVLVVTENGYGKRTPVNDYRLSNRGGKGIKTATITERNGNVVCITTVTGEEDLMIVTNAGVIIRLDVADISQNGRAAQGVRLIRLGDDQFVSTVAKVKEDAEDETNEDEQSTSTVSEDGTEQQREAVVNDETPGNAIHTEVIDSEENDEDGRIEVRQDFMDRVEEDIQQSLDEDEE

Row | Compound | inhibition at 10 µM [%]
1 | CCNC(=S)Nc1nc2cc(-c3cccnc3)ccc2[nH]1 [Ia-34] | > 75
2 | CCCC(=O)Nc1nc2cc(-c3ccccc3)ccc2[nH]1 [Ia-82] | < 50
3 | CCOC(=O)Nc1nc2cc(-c3cnc(N)nc3)ccc2[nH]1 [Ia-72] | > 75
4 | CCOC(=O)Nc1nc2cc(-c3cnc(OC)nc3)ccc2[nH]1 [Ia-22] | > 75
5 | CCNC(=O)Nc1nc2cc(-c3cccc(F)c3)ccc2[nH]1 [Ia-155] | < 50
6 | CCNC(=O)Nc1nc2cc(C(=O)O)ccc2[nH]1 [Ia-33] | < 50
7 | CCNC(=O)Nc1nc2cc(-c3cnc(N)nc3)c(OC)cc2[nH]1 [Ia-126] | > 75
8 | CCOC(=O)Nc1nc2cc(-c3ccccn3)ccc2[nH]1 [Ia-3] | 50 to 75
9 | CCNC(=O)Nc1nc2cc(-c3ccccc3)ccc2[nH]1 [Ia-84, 1-Ethyl-3-(5-phenyl-1H-benzoimidazol-2-yl)-urea] | > 75
10 | CCOC(=O)Nc1nc2cc(-c3cccc(C(=O)OC)c3)ccc2[nH]1 [Ia-81] | 50 to 75
11 | CCOC(=O)Nc1nc2cc(-c3ccc4[nH]c(NC(=O)OCC)nc4c3)ccc2[nH]1 [Ia-67] | > 75
12 | CCOC(=O)Nc1nc2cc(-c3cccnc3)cc(Br)c2[nH]1 [Ia-17] | > 75
13 | CCOC(=O)Nc1nc2cc(-c3cccnc3)ccc2[nH]1 [Ia-11, (5-Pyridin-3-yl-1H-benzoimidazol-2-yl)-carbamic acid ethyl ester] | > 75
14 | CCNC(=O)Nc1nc2cc(-c3cccnc3)cc(Cl)c2[nH]1 [Ia-134] | > 75
15 | COC(=O)Nc1nc2cc(-c3ccccc3)ccc2[nH]1 [Ia-7] | < 50
16 | CCNC(=O)Nc1nc2cc(-c3ccc(F)nc3)ccc2[nH]1 [Ia-136] | > 75
17 | CCNC(=O)Nc1nc2cc(-c3cccnc3)cc(OC)c2[nH]1 [Ia-108] | > 75
18 | CCNC(=O)Nc1nc2cc(-c3cnc(N4CCN(S(C)(=O)=O)CC4)nc3)ccc2[nH]1 [Ia-124] | 50 to 75
19 | COC(=O)Nc1nc2cc(-c3cnc(NCC(=O)OC(C)(C)C)nc3)ccc2[nH]1 [Ia-76] | > 75
20 | CCOC(=O)Nc1nc2cc(-c3cc(F)c(F)cc3F)ccc2[nH]1 [Ia-14] | 50 to 75
21 | CCOC(=O)Nc1nc2cc(-c3cnc(N4CCNCC4)nc3)ccc2[nH]1 [Ia-70] | > 75

Row | Compound | inhibition at 10 µM [%]
22 | CCNC(=O)Nc1nc2cc(-c3cncc(C(=O)O)c3)ccc2[nH]1 [Ia-60] | > 75
23 | CCNC(=O)Nc1nc2cc(-c3ccc(OC)nc3)ccc2[nH]1 [Ia-132] | > 75
24 | CCOC(=O)Nc1nc2cc(-c3cnc(OC)nc3OC)ccc2[nH]1 [Ia-16] | > 75
25 | CCOC(=O)Nc1nc2cc(-c3cncnc3)ccc2[nH]1 [Ia-21] | > 75
26 | CCNC(=O)Nc1nc2cc(-c3cnc(NC(C)COC)nc3)ccc2[nH]1 (centres unmarked) [Ia-100] | > 75
27 | CCOC(=O)Nc1nc2cc(-c3ccncc3)ccc2[nH]1 [Ia-4] | > 75
28 | CCNC(=O)Nc1nc2cc(-c3cnc(NC4CC4)nc3)ccc2[nH]1 [Ia-44] | > 75
29 | CCOC(=O)Nc1nc2cc(-c3ccc(OC)cc3)ccc2[nH]1 [Ia-23] | > 75
30 | CCNC(=N)Nc1nc2cc(-c3ccccc3)ccc2[nH]1 [Ia-101] | < 50
31 | CCOC(=O)Nc1nc2cc(-c3cccc(OCC)c3)ccc2[nH]1 [Ia-15] | 50 to 75
32 | CCOC(=O)Nc1nc2cc(-c3ccccc3C(F)(F)F)ccc2[nH]1 [Ia-9] | < 50
33 | CCNC(=O)Nc1nc2cc(-c3cnc(NCc4ccc(OC)cc4)nc3)ccc2[nH]1 [Ia-49] | > 75
34 | CCOC(=O)Nc1ncc(-c2ccc3[nH]c(NC(=O)OCC)nc3c2)cn1 [Ia-77] | > 75
35 | CCOC(=O)Nc1nc2cc(-c3ccccc3)cc(Br)c2[nH]1 [Ia-19] | > 75
36 | CCNC(=O)Nc1nc2cc(-c3cnc(NCCC4CCCN4C)nc3)ccc2[nH]1 (centres unmarked) [Ia-106] | > 75
37 | CCNC(=O)Nc1nc2cc(-c3cnc(NCCCOC)nc3)ccc2[nH]1 [Ia-102] | > 75
38 | CCOC(=O)Nc1nc2cc(-c3cnc(NC(CO)C(=O)O)nc3)ccc2[nH]1 (centres unmarked) [Ia-94] | > 75
39 | CCNC(=S)Nc1nc2cc(-c3cnc(NCC(=O)OC(C)(C)C)nc3)ccc2[nH]1 [Ia-37] | > 75
40 | CCCN(CC1CC1)c1ncc(-c2ccc3[nH]c(NC(=O)NCC)nc3c2)cn1 [Ia-127] | > 75
41 | CCNC(=O)Nc1nc2cc(-c3cnc(N4CCOCC4)nc3)ccc2[nH]1 [Ia-53] | > 75
42 | CCNC(=O)Nc1nc2cc(-c3ccc(CN(C(=O)OC(C)(C)C)C(C)(C)C)nc3)ccc2[nH]1 [Ia-143] | > 75

Row | Compound | inhibition at 10 µM [%]
43 | CCNC(=O)Nc1nc2cc(-c3cnc(N4CCC(O)C4)nc3)ccc2[nH]1 (centres unmarked) [Ia-129] | > 75
44 | CCOC(=O)Nc1nc2cc(-c3cnc(NCCNC(=O)OC(C)(C)C)nc3)ccc2[nH]1 [Ia-86] | > 75
45 | CCNC(=O)Nc1nc2cc(-c3cnc(NCCN4CCCC4)nc3)ccc2[nH]1 [Ia-55] | > 75
46 | CCNC(=O)Nc1nc2cc(-c3cccnc3)c(F)cc2[nH]1 [Ia-62] | > 75
47 | CCNC(=O)Nc1nc2cc(-c3cnc(N4CC(C)CC(C)C4)nc3)ccc2[nH]1 (centres unmarked) [Ia-109] | > 75
48 | CCOC(=O)Nc1nc2cc(-c3cncc(N)c3)ccc2[nH]1 [Ia-115] | < 50
49 | Nc1nc2cc(-c3ccccc3)ccc2[nH]1 [Ia-6] | < 50
50 | CN1CCCC1C(=O)Nc1nc2cc(-c3ccccc3)ccc2[nH]1 (centres unmarked) [Ia-85] | < 50
51 | CN(C)CCn1c(N)nc2cc(-c3cccnc3)ccc21 [Ia-78] | < 50
52 | CCOC(=O)Nc1nc2cc(-c3ccccc3)ccc2n1C [Ia-10] | < 50
53 | CCNC(=O)Nc1nc2cc(-c3cnc(NC4CCCC4)nc3)ccc2[nH]1 [Ia-57] | > 75
54 | CCOC(=O)Nc1nc2cc(-c3ccc(OC)c(OC)c3)ccc2[nH]1 [Ia-26] | 50 to 75
55 | CCNC(=O)Nc1nc2cc(-c3cnc(N)nc3)c(F)cc2[nH]1 [Ia-131] | > 75
56 | CCNC(=O)Nc1nc2cc(-c3cnc(NCC4CCCO4)nc3)ccc2[nH]1 (centres unmarked) [Ia-47] | > 75
57 | CCOC(=O)Nc1nc2cc(-c3cnc(NCCN)nc3)ccc2[nH]1 [Ia-88] | > 75
58 | CCNC(=S)Nc1nc2cc(-c3cnc(NCC(=O)O)nc3)ccc2[nH]1 [Ia-39] | > 75
59 | CCOC(=O)Nc1nc2cc(-c3ccccc3)ccc2[nH]1 [Ia-1] | 50 to 75
60 | CCNC(=O)Nc1nc2cc(-c3cnc(N4CCN(C)CC4)nc3)ccc2[nH]1 [Ia-64] | > 75
61 | CCNC(=O)Nc1nc2cc(-c3cnc(NCc4ccc(F)c(Cl)c4)nc3)ccc2[nH]1 [Ia-61] | > 75
62 | COC(=O)CCNc1nc2cc(-c3cccnc3)ccc2[nH]1 [Ia-75] | < 50
63 | CCCNc1nc2cc(-c3cccnc3)ccc2[nH]1 [Ia-74] | < 50

Row | Compound | inhibition at 10 µM [%]
64 | CCNC(=O)Nc1nc2cc(-c3cnc(NC(COC(C)(C)C)C(=O)OC(C)(C)C)nc3)ccc2[nH]1 (centres unmarked) [Ia-40] | > 75
65 | CC(C)(C)OCC(Nc1ncc(-c2ccc3[nH]c(NC#N)nc3c2)cn1)C(=O)OC(C)(C)C (centres unmarked) [Ia-41] | < 50
66 | CCNC(=O)Nc1nc2cc(-c3cnc(N4CCCC4)nc3)ccc2[nH]1 [Ia-65] | > 75
67 | CCNC(=O)Nc1nc2cc(-c3cnc(N4CCC(O)CC4)nc3)ccc2[nH]1 [Ia-125] | > 75
68 | CCNC(=O)Nc1nc2cc(-c3cncc(C(=O)OCC)c3)ccc2[nH]1 [Ia-59] | > 75
69 | CCNC(=O)Nc1nc2cc(-c3ccccc3)cc(Br)c2[nH]1 [Ia-89] | > 75
70 | CCNC(=O)Nc1nc2cc(-n3cc(C(=O)N4CCOCC4)cn3)ccc2[nH]1 [Ia-172] | > 75
71 | CCCc1cc(-c2ccccc2)cc2nc(NC(=O)OCC)[nH]c12 [Ia-13] | < 50
72 | CCNC(=O)Nc1nc2cc(-c3cnc(NCCc4ccccn4)nc3)ccc2[nH]1 [Ia-63] | > 75
73 | CCCCNc1nc2cc(-c3cccnc3)ccc2[nH]1 [Ia-73] | < 50
74 | CCNC(=O)Nc1nc2cc(-c3cnc(N)nc3)ccc2[nH]1 [Ia-54] | > 75
75 | O=C(Nc1nc2cc(-c3cccnc3)ccc2[nH]1)NC1CC1 [Ia-38] | 50 to 75
76 | CCOC(=O)Nc1nc2cc(-c3cnc(NCC(=O)O)nc3)ccc2[nH]1 [Ia-80] | > 75
77 | CCNC(=O)Nc1nc2cc(-c3cnc(NCC)nc3)ccc2[nH]1 [Ia-66] | > 75
78 | CCNC(=O)Nc1nc2cc(-c3ccccc3)cc(OC)c2[nH]1 [Ia-50] | 50 to 75
79 | CCNC(=O)Nc1nc2cc(-c3cnc(OC)nc3OC)ccc2[nH]1 [Ia-52] | > 75
80 | CCOC(=O)Nc1nc2cc(-c3cccs3)ccc2[nH]1 [Ia-2] | 50 to 75
81 | CNc1nc2cc(-c3cccnc3)ccc2n1CCN(C)C [Ia-79] | < 50
82 | CCOC(=O)Nc1nc2cc(-c3ccc(N(C)C)cc3)ccc2[nH]1 [Ia-12] | 50 to 75
83 | O=C(Nc1nc2cc(-c3ccccc3)cc(Br)c2[nH]1)N1CCCCC1 [Ia-20] | < 50
